± gives the expanded uncertainty stated by the source.
Conditions: for surface tension liquid-gas: Ring tensiometer; for viscosity / mass density: 101.33 kPa, Liquid; for viscosity: Capillary tube (Ostwald / Ubbelohde) method; for mass density: Pycnometric method

SMILES | surface tension liquid-gas (293.15 K) [mN/m] | viscosity (293.15 K) [mPa·s] | mass density (293.15 K) [kg/m3] | surface tension liquid-gas (298.15 K) [mN/m] | viscosity (298.15 K) [mPa·s] | mass density (298.15 K) [kg/m3] | surface tension liquid-gas (303.15 K) [mN/m] | viscosity (303.15 K) [mPa·s] | mass density (303.15 K) [kg/m3] | surface tension liquid-gas (308.15 K) [mN/m] | viscosity (308.15 K) [mPa·s] | mass density (308.15 K) [kg/m3] | surface tension liquid-gas (313.15 K) [mN/m] | viscosity (313.15 K) [mPa·s] | mass density (313.15 K) [kg/m3] | surface tension liquid-gas (318.15 K) [mN/m] | viscosity (318.15 K) [mPa·s] | mass density (318.15 K) [kg/m3] | surface tension liquid-gas (323.15 K) [mN/m] | viscosity (323.15 K) [mPa·s] | other results
CCCC[n+]1ccc(C)cc1.O=S(=O)([N-]S(=O)(=O)C(F)(F)F)C(F)(F)F | 35.4 ± 0.6 | 65.26 ± 6.5 | 1419 ± 25 | 35 ± 0.6 | 54.41 ± 5.5 | 1413 ± 25 | 34.7 ± 0.6 | 44.42 ± 4.5 | 1412 ± 25 | 34.5 ± 0.6 | 36.12 ± 3.6 | 1411 ± 25 | 34.2 ± 0.6 | 29.81 ± 3 | 1410 ± 25 | 34 ± 0.6 | 25.18 ± 2.5 | 1409 ± 25 | 33.8 ± 0.6 | 20.23 ± 2 | mass density (323.15 K): 1405 ± 25 kg/m3
CCCC[n+]1cccc(C)c1.O=S(=O)([N-]S(=O)(=O)C(F)(F)F)C(F)(F)F | 35.8 ± 0.6 | 81.71 ± 8.2 | 1429 ± 25 | 35.5 ± 0.6 | 64.73 ± 6.5 | 1425 ± 25 | 35.3 ± 0.6 | 51.42 ± 5.2 | 1423 ± 25 | 35.1 ± 0.6 | 41.73 ± 4.2 | 1421 ± 25 | 34.8 ± 0.6 | 33.98 ± 3.4 | 1420 ± 25 | 34.6 ± 0.6 | 29.05 ± 2.9 | 1419 ± 25 | 34.4 ± 0.6 | 25.68 ± 2.6 | mass density (323.15 K): 1416 ± 25 kg/m3
CCCC[n+]1ccccc1C.O=S(=O)([N-]S(=O)(=O)C(F)(F)F)C(F)(F)F | 36.5 ± 0.6 | 143.91 ± 15 | 1482 ± 25 | 36.3 ± 0.6 | 95.73 ± 9.7 | 1476 ± 25 | 36.1 ± 0.6 | 72.05 ± 7.2 | 1459 ± 25 | 35.9 ± 0.6 | 56.95 ± 5.7 | 1450 ± 25 | 35.5 ± 0.6 | 45.83 ± 4.6 | 1446 ± 25 | 35.2 ± 0.6 | 37.39 ± 3.8 | 1440 ± 25 | 35 ± 0.6 | 29.48 ± 3 | mass density (323.15 K): 1435 ± 25 kg/m3
CCCC[n+]1cccc(C)c1.F[B-](F)(F)F [1-butyl-3-methylpyridinium tetrafluoroborate] | 47.5 ± 0.7 | 226.15 ± 23 | 1189 ± 25 | 47.1 ± 0.7 | 169.51 ± 17 | 1177 ± 25 | 45.8 ± 0.7 | 129.06 ± 13 | 1172 ± 25 | 45.6 ± 0.7 | 97.03 ± 9.8 | 1168 ± 25 | 45.3 ± 0.7 | 73.35 ± 7.4 | 1166 ± 25 | 44.9 ± 0.7 | 59.05 ± 5.9 | 1163 ± 25 | 44.4 ± 0.7 | 46.59 ± 4.7 | mass density (323.15 K): 1160 ± 25 kg/m3
CCCC[n+]1cccc(C)c1.O=S(=O)([O-])C(F)(F)F [1-butyl-3-methylpyridinium trifluoromethanesulfonate] | 38.6 ± 0.6 | 142.15 ± 14 | 1306 ± 25 | 38.2 ± 0.6 | 126.57 ± 13 | 1297 ± 25 | 37.5 ± 0.6 | 101.27 ± 10 | 1291 ± 25 | 37.1 ± 0.6 | 78.04 ± 7.8 | 1285 ± 25 | 36.9 ± 0.6 | 60.98 ± 6.1 | 1275 ± 25 | 36.6 ± 0.6 | 48.9 ± 4.9 | 1270 ± 25 | 36.2 ± 0.6 | 37.94 ± 3.8 | mass density (323.15 K): 1251 ± 25 kg/m3
CCCC[n+]1ccccc1.O=S(=O)([N-]S(=O)(=O)C(F)(F)F)C(F)(F)F [1-butylpyridinium bis[(trifluoromethyl)sulfonyl]imide] | 35 ± 0.6 | 75.61 ± 7.6 | 1462 ± 25 | 34.8 ± 0.6 | 60.55 ± 6.1 | 1456 ± 25 | 34.5 ± 0.6 | 48.11 ± 4.8 | 1445 ± 25 | 34.4 ± 0.6 | 38.08 ± 3.8 | 1441 ± 25 | 34.3 ± 0.6 | 32.37 ± 3.2 | 1439 ± 25 | 34.2 ± 0.6 | 27.62 ± 2.8 | 1437 ± 25 | 34.1 ± 0.6 | 22.75 ± 2.3 | mass density (323.15 K): 1433 ± 25 kg/m3
CC[n+]1ccccc1.O=S(=O)([N-]S(=O)(=O)C(F)(F)F)C(F)(F)F [1-ethylpyridinium bis[(trifluoromethyl)sulfonyl]imide] | 35.6 ± 0.6 | 47.43 ± 4.8 | 1534 ± 25 | 35.5 ± 0.6 | 39.76 ± 4 | 1532 ± 25 | 35.4 ± 0.6 | 33.31 ± 3.3 | 1530 ± 25 | 35.3 ± 0.6 | 27.8 ± 2.8 | 1528 ± 25 | 35.2 ± 0.6 | 23.39 ± 2.3 | 1520 ± 25 | 35.2 ± 0.6 | 20.2 ± 2 | 1519 ± 25 | 35.1 ± 0.6 | 17.61 ± 1.8 | mass density (323.15 K): 1515 ± 25 kg/m3
CCCCCC[n+]1ccccc1.O=S(=O)([N-]S(=O)(=O)C(F)(F)F)C(F)(F)F [1-hexylpyridinium bis(trifluromethylsulfonyl)imide] | 34.2 ± 0.6 | 275.12 ± 28 | 1386 ± 25 | 33.9 ± 0.6 | 245.33 ± 25 | 1382 ± 25 | 33.5 ± 0.6 | 201.82 ± 21 | 1379 ± 25 | 33.3 ± 0.5 | 153.24 ± 16 | 1373 ± 25 | 33 ± 0.5 | 131.32 ± 13 | 1368 ± 25 | 32.8 ± 0.5 | 105.99 ± 11 | 1368 ± 25 | 32.6 ± 0.5 | 83.66 ± 8.4 | mass density (323.15 K): 1362 ± 25 kg/m3
